# In ChEMBL document CHEMBL3621198, “Probing cytochrome P450-mediated activation with a truncated azinomycin analogue” (Medchemcomm, 2015):
# Active and inactive are the calls of the source. The rule behind the calls is not given here.
# What was measured:
# CHO [1] = assay: Cytotoxicity against wild type CHO cells assessed as growth inhibition after 96 hrs by MTT assay; format: functional, cell-based; settings: Cricetulus griseus
# CHO [2] = assay: Cytotoxicity against CHO cells transfected with CYP1A1 assessed as growth inhibition after 96 hrs by MTT assay; format: functional, cell-based; settings: Cricetulus griseus
# Cytochrome P450 1A1 [3] = biological target: T1, Cytochrome P450 1A1 (Homo sapiens, UniProt P04798); assay: Drug level in presence of CYP1A1 (unknown origin) expressed in bactosomes treated with 1-amino-3-methyl-1-oxobut-3-en-2-yl 3-methoxy-5-methyl-1-naphthoate measured for 180 mins by LC/MS/MS analysis; format: ADME; settings: recombinant enzyme, 3 h
# T1 sequence (P04798 whole entry): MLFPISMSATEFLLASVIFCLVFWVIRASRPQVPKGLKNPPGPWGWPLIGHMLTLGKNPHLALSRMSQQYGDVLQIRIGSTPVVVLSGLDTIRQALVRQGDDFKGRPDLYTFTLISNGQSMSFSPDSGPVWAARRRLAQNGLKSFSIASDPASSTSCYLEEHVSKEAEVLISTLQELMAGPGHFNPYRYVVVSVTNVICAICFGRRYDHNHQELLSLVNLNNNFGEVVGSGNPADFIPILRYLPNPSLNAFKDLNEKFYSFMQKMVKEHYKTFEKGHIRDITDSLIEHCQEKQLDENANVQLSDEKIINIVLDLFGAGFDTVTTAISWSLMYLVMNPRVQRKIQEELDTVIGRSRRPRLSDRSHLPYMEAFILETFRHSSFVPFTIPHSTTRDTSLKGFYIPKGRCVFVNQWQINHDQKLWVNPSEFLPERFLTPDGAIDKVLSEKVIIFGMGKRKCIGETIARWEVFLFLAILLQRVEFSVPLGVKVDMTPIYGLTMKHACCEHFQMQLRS
# Cytochrome P450 1B1 [4] = biological target: T2, Cytochrome P450 1B1 (Homo sapiens, UniProt Q16678); assay: Drug level in presence of CYP1B1 (unknown origin) expressed in bactosomes treated with 1-amino-3-methyl-1-oxobut-3-en-2-yl 3-methoxy-5-methyl-1-naphthoate measured for 180 mins by LC/MS/MS analysis; format: ADME; settings: recombinant enzyme, 3 h
# T2 sequence (Q16678 whole entry): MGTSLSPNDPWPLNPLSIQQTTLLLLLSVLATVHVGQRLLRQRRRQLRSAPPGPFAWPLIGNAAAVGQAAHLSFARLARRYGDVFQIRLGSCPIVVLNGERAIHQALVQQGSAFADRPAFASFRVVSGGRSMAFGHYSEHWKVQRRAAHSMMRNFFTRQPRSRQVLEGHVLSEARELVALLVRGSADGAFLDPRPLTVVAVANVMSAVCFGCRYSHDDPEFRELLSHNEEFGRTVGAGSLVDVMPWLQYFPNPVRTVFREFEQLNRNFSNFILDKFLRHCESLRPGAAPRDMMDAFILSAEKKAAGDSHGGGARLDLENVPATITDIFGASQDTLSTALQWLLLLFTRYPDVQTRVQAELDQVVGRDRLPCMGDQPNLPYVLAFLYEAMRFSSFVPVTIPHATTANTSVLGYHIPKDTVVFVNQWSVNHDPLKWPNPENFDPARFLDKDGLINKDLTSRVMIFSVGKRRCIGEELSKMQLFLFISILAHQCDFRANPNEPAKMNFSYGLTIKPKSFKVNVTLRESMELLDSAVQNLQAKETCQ
# CHO [5] = assay: Induction of DNA damage in wild type CHO cells assessed as DNA single strand breaks at 50 uM after 1 hr by alkaline comet assay in absence of CYP3A4 expressed in bactosomes; format: functional, cell-based; settings: Cricetulus griseus
# CHO [6] = assay: Induction of DNA damage in wild type CHO cells assessed as DNA interstrand cross-links by measuring decrease in mean tail moment at 50 uM after 1 hr by alkaline comet assay in presence of CYP3A4 expressed in bactosomes; format: functional, cell-based; settings: Cricetulus griseus
# CHO [7] = assay: Cytotoxicity against wild type CHO cells assessed as growth inhibition preincubated with CYP3A4 expressed in bactosomes for 1 hr followed by cell addition measured after 96 hrs by MTT assay; format: functional, cell-based; settings: Cricetulus griseus
# CHO [8] = assay: Potentiation factor, ratio of IC50 for wild type CHO cells in absence of CYP1A1 expressed in bactosomes to IC50 for wild type CHO cells in presence of CYP1A1 expressed in bactosomes; format: functional, Cricetulus griseus
# CHO [9] = assay: Potentiation factor, ratio of IC50 for wild type CHO cells in absence of CYP3A4 expressed in bactosomes to IC50 for wild type CHO cells in presence of CYP3A4 expressed in bactosomes; format: functional, Cricetulus griseus
# Cytochrome P450 1A1 [10] = biological target: T1, Cytochrome P450 1A1; assay: Drug metabolism assessed as CYP1A1 (unknown origin) expressed in bactosomes-mediated (1R)-2-amino-1-(2-methyloxiran-2-yl)-2-oxoethyl 3-methoxy-5-methyl-1-naphthoate formation measured for 180 mins by LC/MS/MS analysis; format: ADME; settings: recombinant enzyme, 3 h
# CHO [11] = assay: Cytotoxicity against wild type CHO cells assessed as growth inhibition preincubated with CYP1A1 expressed in bactosomes for 1 hr followed by cell addition measured after 96 hrs by MTT assay; format: functional, cell-based; settings: Cricetulus griseus
# CHO [12] = assay: Cytotoxicity against wild type CHO cells assessed as growth inhibition preincubated with CYP1A2 expressed in bactosomes for 1 hr followed by cell addition measured after 96 hrs by MTT assay; format: functional, cell-based; settings: Cricetulus griseus
# CHO [13] = assay: Cytotoxicity against wild type CHO cells assessed as growth inhibition preincubated with CYP1B1 expressed in bactosomes for 1 hr followed by cell addition measured after 96 hrs by MTT assay; format: functional, cell-based; settings: Cricetulus griseus
# CHO [14] = assay: Cytotoxicity against wild type CHO cells assessed as growth inhibition preincubated with CYP2D6 expressed in bactosomes for 1 hr followed by cell addition measured after 96 hrs by MTT assay; format: functional, cell-based; settings: Cricetulus griseus
# CHO [15] = assay: Potentiation factor, ratio of IC50 for wild type CHO cells in absence of CYP1A2 expressed in bactosomes to IC50 for wild type CHO cells in presence of CYP1A2 expressed in bactosomes; format: functional, Cricetulus griseus
# CHO [16] = assay: Potentiation factor, ratio of IC50 for wild type CHO cells in absence of CYP1B1 expressed in bactosomes to IC50 for wild type CHO cells in presence of CYP1B1 expressed in bactosomes; format: functional, Cricetulus griseus
# CHO [17] = assay: Potentiation factor, ratio of IC50 for wild type CHO cells in absence of CYP2D6 expressed in bactosomes to IC50 for wild type CHO cells in presence of CYP2D6 expressed in bactosomes; format: functional, Cricetulus griseus
# CHO [18] = assay: Induction of DNA damage in wild type CHO cells assessed as DNA single strand breaks at 50 uM after 1 hr by alkaline comet assay in presence of CYP3A4 expressed in bactosomes; format: functional, cell-based; settings: Cricetulus griseus
# CHO [19] = assay: Induction of DNA damage in wild type CHO cells assessed as DNA double strand breaks by measuring increase in mean tail moment at 50 uM after 1 hr by neutral comet assay in absence of CYP3A4 expressed in bactosomes; format: functional, cell-based; settings: Cricetulus griseus
# CHO [20] = assay: Induction of DNA damage in wild type CHO cells assessed as DNA double strand breaks by measuring increase in mean tail moment at 50 uM after 1 hr by neutral comet assay in presence of CYP3A4 expressed in bactosomes; format: functional, cell-based; settings: Cricetulus griseus
# CHO [21] = assay: Induction of DNA damage in wild type CHO cells assessed as DNA interstrand cross-links by measuring decrease in mean tail moment at 50 uM after 1 hr by alkaline comet assay in absence of CYP3A4 bactosomes; format: functional, cell-based; settings: Cricetulus griseus
# SW480 = assay: Cytotoxicity against human SW480 cells transfected with CYP2W1 assessed as growth inhibition at 0.001 to 100 uM after 96 hrs by MTT assay; format: functional, cell-based
# SGC-7901 [22] = assay: Cytotoxicity against human SGC7901 cells expressing CYP1A1 mRNA assessed as growth inhibition after 96 hrs by MTT assay; format: functional, cell-based
# SGC-7901 [23] = assay: Cytotoxicity against human SGC7901 cells expressing CYP3A4 mRNA assessed as growth inhibition after 96 hrs by MTT assay; format: functional, cell-based
# MKN-45 [24] = assay: Cytotoxicity against human MKN45 cells expressing CYP1A1 mRNA assessed as growth inhibition after 96 hrs by MTT assay; format: functional, cell-based
# MKN-45 [25] = assay: Cytotoxicity against human MKN45 cells expressing CYP3A4 mRNA assessed as growth inhibition after 96 hrs by MTT assay; format: functional, cell-based
# SGC-7901 [26] = assay: Cytotoxicity against human SGC7901 cells expressing CYP1A1 protein assessed as growth inhibition after 96 hrs by MTT assay; format: functional, cell-based
# SGC-7901 [27] = assay: Cytotoxicity against human SGC7901 cells expressing CYP3A4 protein assessed as growth inhibition after 96 hrs by MTT assay; format: functional, cell-based
# MKN-45 [28] = assay: Cytotoxicity against human MKN45 cells expressing CYP1A1 protein assessed as growth inhibition after 96 hrs by MTT assay; format: functional, cell-based
# MKN-45 [29] = assay: Cytotoxicity against human MKN45 cells expressing CYP3A4 protein assessed as growth inhibition after 96 hrs by MTT assay; format: functional, cell-based
# Cytochrome P450 3A4 [30] = biological target: T3, Cytochrome P450 3A4 (Homo sapiens, UniProt P08684); assay: Drug metabolism assessed as CYP3A4 (unknown origin) expressed in bactosomes-mediated (1S)-2-amino-1-(2-methyloxiran-2-yl)-2-oxoethyl 3-methoxy-5-methyl-1-naphthoate formation measured for 180 mins by LC/MS/MS analysis; format: ADME; settings: recombinant enzyme, 3 h
# Cytochrome P450 1B1 [31] = biological target: T2, Cytochrome P450 1B1; assay: Drug metabolism assessed as CYP1B1 (unknown origin) expressed in bactosomes-mediated (1R)-2-amino-1-(2-methyloxiran-2-yl)-2-oxoethyl 3-methoxy-5-methyl-1-naphthoate/(1S)-2-amino-1-(2-methyloxiran-2-yl)-2-oxoethyl 3-methoxy-5-methyl-1-naphthoate formation measured for 180 mins by LC/MS/MS analysis; format: ADME; settings: recombinant enzyme, 3 h
# Cytochrome P450 3A4 [32] = biological target: T3, Cytochrome P450 3A4; assay: Drug level in presence of CYP3A4 (unknown origin) expressed in bactosomes treated with 1-amino-3-methyl-1-oxobut-3-en-2-yl 3-methoxy-5-methyl-1-naphthoate measured for 180 mins by LC/MS/MS analysis; format: ADME; settings: recombinant enzyme, 3 h
# T3 sequence (P08684 whole entry): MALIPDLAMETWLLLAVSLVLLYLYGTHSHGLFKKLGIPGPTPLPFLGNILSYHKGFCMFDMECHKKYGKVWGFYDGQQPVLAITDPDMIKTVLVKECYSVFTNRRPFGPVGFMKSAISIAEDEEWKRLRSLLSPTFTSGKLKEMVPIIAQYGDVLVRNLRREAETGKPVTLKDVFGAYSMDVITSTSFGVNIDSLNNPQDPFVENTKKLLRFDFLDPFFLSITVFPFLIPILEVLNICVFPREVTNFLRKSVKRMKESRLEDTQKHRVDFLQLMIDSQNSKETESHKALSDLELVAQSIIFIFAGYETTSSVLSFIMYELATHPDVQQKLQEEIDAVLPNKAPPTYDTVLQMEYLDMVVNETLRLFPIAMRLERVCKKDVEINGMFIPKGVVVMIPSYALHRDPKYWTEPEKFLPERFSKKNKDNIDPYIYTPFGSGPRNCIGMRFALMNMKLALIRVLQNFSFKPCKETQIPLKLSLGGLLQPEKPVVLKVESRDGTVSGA
smiles,measurement,setting,value
C=C(C)[C@@H](OC(=O)c1ccc(F)c2ccccc12)C(N)=O,IC50,CHO [1],> 100 µM
same,IC50,CHO [2],> 100 µM
COc1cc(C(=O)O[C@@H](C(N)=O)C2(C)CO2)c2cccc(C)c2c1 (some centres not stated),IC50,CHO [1],5.7 µM
same,IC50,CHO [2],6 µM
same,Drug metabolism,Cytochrome P450 1A1 [3],metabolite_detected
same,Drug metabolism,Cytochrome P450 1B1 [4],metabolite_detected
COc1ccc2c(OC)ccc(C(=O)O[C@@H](C(N)=O)C3(C)CO3)c2c1 (some centres not stated),IC50,CHO [1],3 µM
same,IC50,CHO [2],9 µM
C=C(C)[C@@H](OC(=O)c1cc(OC)cc2c(C)cccc12)C(N)=O,Activity,CHO [5],inactive
same,Activity,CHO [6],Active
same,IC50,CHO [7],3.34 µM
same,Ratio IC50,CHO [8],5.8
same,Ratio IC50,CHO [9],24.4
same,Drug metabolism,Cytochrome P450 1A1 [10],metabolite_detected
same,IC50,CHO [1],81.6 µM
same,IC50,CHO [2],6.3 µM
same,IC50,CHO [11],14.2 µM
same,IC50,CHO [12],20.3 µM
same,IC50,CHO [13],11.8 µM
same,IC50,CHO [14],28.3 µM
same,Ratio IC50,CHO [15],4
same,Ratio IC50,CHO [16],7
same,Ratio IC50,CHO [17],2.9
same,Activity,CHO [18],Active
same,Activity,CHO [19],inactive
same,Activity,CHO [20],inactive
same,Activity,CHO [21],inactive
same,growth inhibition (GI),SW480,inactive
same,growth inhibition (GI),SGC-7901 [22],Dose-dependent effect
same,growth inhibition (GI),SGC-7901 [23],Dose-dependent effect
same,growth inhibition (GI),MKN-45 [24],Dose-dependent effect
same,growth inhibition (GI),MKN-45 [25],Dose-dependent effect
same,growth inhibition (GI),SGC-7901 [26],Dose-dependent effect
same,growth inhibition (GI),SGC-7901 [27],Dose-dependent effect
same,growth inhibition (GI),MKN-45 [28],Dose-dependent effect
same,growth inhibition (GI),MKN-45 [29],Dose-dependent effect
same,Drug metabolism,Cytochrome P450 3A4 [30],metabolite_detected
same,Drug metabolism,Cytochrome P450 1B1 [31],metabolite_detected
Cc1ccc(C(=O)O[C@@H](C(N)=O)C2(C)CO2)c2ccccc12 (some centres not stated),IC50,CHO [1],5 µM
same,IC50,CHO [2],9 µM
CC1([C@H](OC(=O)c2ccc(F)c3ccccc23)C(N)=O)CO1 (some centres not stated),IC50,CHO [1],7 µM
same,IC50,CHO [2],3 µM
CC1([C@@H](OC(=O)c2cccc3ccccc23)C(N)=O)CO1 (some centres not stated),IC50,CHO [1],10 µM
same,IC50,CHO [2],9 µM
C=C(C)[C@@H](OC(=O)c1ccc(C)c2ccccc12)C(N)=O,IC50,CHO [1],> 100 µM
same,IC50,CHO [2],> 100 µM
COc1ccc2c(OC)ccc(C(=O)O[C@H](C(N)=O)C3(C)CO3)c2c1 (some centres not stated),IC50,CHO [1],6 µM
same,IC50,CHO [2],3 µM
CC1([C@H](OC(=O)c2cccc3ccccc23)C(N)=O)CO1 (some centres not stated),IC50,CHO [1],10 µM
same,IC50,CHO [2],5 µM
Cc1ccc(C(=O)O[C@H](C(N)=O)C2(C)CO2)c2ccccc12 (some centres not stated),IC50,CHO [1],6 µM
same,IC50,CHO [2],3 µM
C=C(C)[C@@H](OC(=O)c1cccc2ccccc12)C(N)=O,IC50,CHO [1],> 100 µM
same,IC50,CHO [2],> 100 µM
CC1([C@@H](OC(=O)c2ccc(F)c3ccccc23)C(N)=O)CO1 (some centres not stated),IC50,CHO [1],7 µM
same,IC50,CHO [2],2 µM
C=C(C)[C@@H](OC(=O)c1ccc(OC)c2ccc(OC)cc12)C(N)=O,IC50,CHO [1],> 100 µM
same,IC50,CHO [2],> 100 µM
COc1cc(C(=O)O[C@H](C(N)=O)C2(C)CO2)c2cccc(C)c2c1 (some centres not stated),IC50,CHO [1],2.8 µM
same,IC50,CHO [2],3.2 µM
same,Drug metabolism,Cytochrome P450 3A4 [32],metabolite_detected
same,Drug metabolism,Cytochrome P450 1B1 [4],metabolite_detected
